This is an account of results in patent US20230000842A1, “METHODS OF TREATING CARTILAGE DISORDERS THROUGH INHIBITION OF CLK AND DYRK” (SAMUMED, LLC, priority 2019, published 2023).

Molecules are shown by their SMILES.

Test [1] has as its system Wnt pathway activity (SW480 colon carcinoma cells stably expressing the Sp5-Luc reporter). In words: Wnt pathway activity screening assay (Sp5-Luc reporter gene assay). To be noted: Homo sapiens, SW480, Table 4; SW480 cells stably expressing Sp5-Luc reporter, 10-point dose-response from 10 μM, 36 to 48 hours.
Method: The screening assay for Wnt pathway activity is described as follows.
SW480 colon carcinoma cells were transduced with a lentiviral vector expressing luciferase with a human Sp5 promoter consisting of a sequence of eight TCF/LEF binding sites. […] These stably transduced SW480 cells were expanded in cell culture and used for all further screening activities. Each compound was dissolved in DMSO as a 10 mM stock and used to prepare compound source plates. Serial dilution (1:3, 10-point dose-response curves starting from 10 μM) and compound transfer was performed using the ECHO 550 (Labcyte, Sunnyvale, Calif.) into 384-well white solid bottom assay plates (Greiner Bio-One) with appropriate DMSO backfill for a final DMSO concentration of 0.1%. […] Following incubation, 15 μl of BriteLite Plus luminescence reagent (Perkin Elmer) was added to each well of the 384-well assay plates. The plates were placed on an orbital shaker for 2 min and then luminescence was quantified using the Envision (Perkin Elmer) plate reader.
Test [2] deals with CLK2 kinase (Homo sapiens, UniProt P49760). The test is described as follows: CLK2 kinase activity assay (Z-lyte FRET).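 Note: FRET read-out as coumarin to fluorescein emission ratio, unphosphorylated peptide as 0% and phosphorylated peptide as 100% controls, duplicate reactions, non-linear regression fit of dose-response curves.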 Type of test: biochemical. The settings on record: Z-lyte Ser/Thr 6 peptide, 60 μM ATP, 1 h at room temperature.
Chain of CLK2 kinase (P49760 whole entry): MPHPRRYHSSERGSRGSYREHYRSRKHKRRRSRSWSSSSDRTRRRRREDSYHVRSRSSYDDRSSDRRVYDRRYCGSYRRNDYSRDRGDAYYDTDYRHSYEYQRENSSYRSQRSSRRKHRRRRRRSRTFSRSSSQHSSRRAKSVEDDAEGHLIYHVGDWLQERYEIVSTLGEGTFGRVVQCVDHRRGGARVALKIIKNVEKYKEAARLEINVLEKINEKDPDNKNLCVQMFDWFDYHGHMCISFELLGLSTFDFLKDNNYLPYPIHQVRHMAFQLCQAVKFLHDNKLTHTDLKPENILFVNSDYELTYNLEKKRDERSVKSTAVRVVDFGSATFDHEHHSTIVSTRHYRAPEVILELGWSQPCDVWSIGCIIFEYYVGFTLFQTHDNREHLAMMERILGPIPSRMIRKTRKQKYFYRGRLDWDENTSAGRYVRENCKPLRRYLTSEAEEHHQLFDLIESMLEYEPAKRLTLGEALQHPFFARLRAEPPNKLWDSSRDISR
The test system of test [3] is primary human mesenchymal stem cells (hMSCs). The test is described as follows: Chondrogenesis screening using primary human mesenchymal stem cells. Type of test: cell-based. The settings on record: Homo sapiens, Mesenchymal stem cells, hMSC chondrogenesis; for Emax: maximum activity relative to TGF-β3 (10 ng/mL) positive control, read-out: Max. Activity as % TGF-β3 activity; for EC50: concentration required to induce 50% levels of chondrogenesis with TGF-β3 as positive control, read-out: Conc (nM) of 50% TGF-β3 activity. The procedure, abridged:
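Primary hMSCs at passage 3–6 were treated across compound concentrations, with TGF-β3 as positive control. Chondrogenic nodule area per well was normalized to 3 DMSO wells on the same plate (fold over DMSO, 2–3 replicates). EC50, maximum activity and the dose reaching it were derived.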

In test [4] the target is CLK3 kinase (Homo sapiens, UniProt P49761). In words: CLK3 kinase activity assay (Z-lyte FRET).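 Note: kinase activity read as coumarin/fluorescein emission ratio by FRET, unphosphorylated peptide as 0% and phosphorylated peptide as 100% control, values from non-linear regression of dose-response curves.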 Type of test: biochemical. The settings on record: Z-lyte Ser/Thr 18 peptide, 156 μM ATP, 1 h at room temperature.
Chain of CLK3 kinase (P49761 whole entry): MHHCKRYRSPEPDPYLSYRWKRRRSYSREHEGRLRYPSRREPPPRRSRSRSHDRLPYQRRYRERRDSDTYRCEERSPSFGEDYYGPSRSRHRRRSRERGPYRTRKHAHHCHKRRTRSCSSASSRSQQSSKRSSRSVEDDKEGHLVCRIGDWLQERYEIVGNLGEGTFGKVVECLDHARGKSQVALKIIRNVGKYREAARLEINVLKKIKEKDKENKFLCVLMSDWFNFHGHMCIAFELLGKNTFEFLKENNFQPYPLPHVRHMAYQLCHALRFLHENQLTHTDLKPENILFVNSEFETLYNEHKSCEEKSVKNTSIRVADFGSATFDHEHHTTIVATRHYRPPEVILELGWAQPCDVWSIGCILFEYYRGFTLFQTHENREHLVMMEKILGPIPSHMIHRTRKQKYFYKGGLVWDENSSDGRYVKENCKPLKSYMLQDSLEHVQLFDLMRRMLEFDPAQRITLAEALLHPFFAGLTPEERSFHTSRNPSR
Method: This is a non-radioactive assay using fluorescence resonance energy transfer (FRET) between coumarin and fluorescein to detect kinase activity which is represented as a ratio of coumarin emission/fluorescein emission.
The mixture was allowed to incubate with the representative compounds for one hour at room temperature. All reactions were performed in duplicate. Unphosphorylated (“0% Control”) and phosphorylated (“100% control”) forms of Ser/Thr 18 served as control reactions. Additionally, an 11-point dose-response curve of Staurosporine (1 μM top) was run to serve as a positive compound control.
After incubation, Development Reagent A was diluted in Development Buffer then added to the reaction and allowed to further incubate for one hour at room temperature.
Dose-response curves were generated and inhibitory concentration (IC50) values were calculated using non-linear regression curve fit in the Dotmatics' Studies Software (Bishops Stortford, UK).

Turning to `CN(C)Cc1cncc(-c2ccc3[nH]nc(-c4cc5cccnc5[nH]4)c3n2)c1` [compound 443], the EC50 is greater than 10000 nM in test [1], 7 nM in test [2] and 566 nM in test [4]. Besides, the Emax in test [3] was 37%.
As for `c1cncc(-c2ccc3[nH]nc(-c4nc5c(-c6cccnc6)ccnc5[nH]4)c3n2)c1` [compound 185], the EC50 in test [1] came out at 1510 nM; in test [2] it was 1 nM; in test [3], 300 nM; in test [4] it was 308 nM. For the same molecule, the Emax in test [3] came to 94.6%.
Take `CCNCc1cncc(-c2ccc3[nH]nc(-c4cc5c(-c6cccnc6)ccnc5[nH]4)c3c2)c1` [compound 365]: the EC50 in test [1] was greater than 10000 nM; in test [2] it was 13 nM; in test [4], 443 nM. Moreover, the Emax in test [3] amounted to 28.7%.
With `CN(C)c1cncc(-c2cc3c(-c4cc5cnccc5[nH]4)n[nH]c3cn2)c1` [compound 441], the EC50 in test [1] is 3060 nM; in test [2], 5 nM; in test [3], 300 nM; in test [4] it was 538 nM. Further, the Emax in test [3] came out at 101%.
For the molecule `CCC(=O)Nc1cncc(-c2cc3c(-c4cc5c(-c6cccc(F)c6)nccc5[nH]4)n[nH]c3cn2)c1` [compound 306], the EC50 was found to be 305 nM in test [1], 8 nM in test [2], 30 nM in test [3] and 138 nM in test [4]. In test [3], the Emax stood at 50.8%.
With `Cc1ccc(-c2cncc3[nH]c(-c4n[nH]c5cnc(-c6cncc(NC(=O)C7CCC7)c6)cc45)nc23)s1` [compound 277], the EC50 in test [1] worked out at 10.1 nM; in test [2], 6 nM; in test [3], 100 nM; in test [4], 29 nM. The Emax in test [3] came out at 231%.
On to `CN1CCN(c2nccc3[nH]c(-c4n[nH]c5ccc(-c6cncc(CN7CCCC7)c6)cc45)cc23)CC1` [compound 492], for which the EC50 stood at 9380 nM in test [1], 12 nM in test [2] and 885 nM in test [4]. The Emax in test [3] amounted to 31%.
Consider `CCC(=O)Nc1cncc(-c2cnc3[nH]nc(-c4nc5c(-c6ccsc6)cccc5[nH]4)c3c2)c1` [compound 243], for which the EC50 in test [1] is 10 nM; in test [2], 5 nM; in test [3], 100 nM; in test [4], 62 nM. For the same molecule, in test [3], the Emax was 167%.
Regarding `c1cncc(-c2ccc3[nH]nc(-c4cc5c(-c6cccnc6)ccnc5[nH]4)c3c2)c1` [compound 342], the EC50 was greater than 10000 nM in test [1], 4 nM in test [2] and 90 nM in test [4]. Also, the Emax in test [3] was found to be 16.7%.
On to `CC(C)C(=O)Nc1cncc(-c2cnc3[nH]nc(-c4cc5c(N6CCN(C)CC6)nccc5[nH]4)c3c2)c1` [compound 476], for which the EC50 was greater than 10000 nM in test [1], 7 nM in test [2], 30 nM in test [3] and 800 nM in test [4]. Further, the Emax in test [3] worked out at 61.6%.
Regarding `Fc1ccccc1-c1nccc2[nH]c(-c3n[nH]c4cnc(-c5cncc(CN6CCCC6)c5)cc34)cc12` [compound 338], the EC50 in test [1] was determined as 1980 nM; in test [2] it was 5 nM; in test [3], 10 nM; in test [4], 222 nM. In test [3], the Emax stood at 69.4%.
For `CC(C)(C)C(=O)Nc1cncc(-c2ccc3[nH]nc(-c4nc5c(-c6ccc(F)cc6)cncc5[nH]4)c3n2)c1` [compound 162], the EC50 in test [1] amounted to 2730 nM; in test [2], 8 nM; in test [4], 9840 nM. For the same molecule, the Emax in test [3] came to 41.8%.
Regarding `Fc1ccc(-c2nccc3[nH]c(-c4n[nH]c5cnc(-c6cncc(CN7CCC(F)(F)C7)c6)cc45)cc23)cc1` [compound 316], the EC50 in test [1] came out at 291 nM; in test [2] it was 7 nM; in test [3] it was 10 nM; in test [4], 417 nM. The Emax in test [3] was 61.2%.
Consider `CC(C)C(=O)Nc1cncc(-c2cc3c(-c4cc5c(-c6ccncc6)nccc5[nH]4)n[nH]c3cn2)c1` [compound 385], for which the EC50 was greater than 10000 nM in test [1], 12 nM in test [2] and 389 nM in test [4]. Besides, the Emax in test [3] turned out to be 32.1%.
Take `Oc1cncc(-c2ccc3[nH]nc(-c4nc5c(-c6cccc(F)c6)nccc5[nH]4)c3n2)c1` [compound 144]: the EC50 in test [1] came to 460 nM; in test [2], 5 nM; in test [3], 6.86 nM; in test [4] it was 93 nM. In addition, the Emax in test [3] stood at 56.7%.
Take `CN(C)CCOc1cncc(-c2ccc3[nH]nc(-c4nc5c(-c6cccs6)cccc5[nH]4)c3n2)c1` [compound 261]: the EC50 stood at 3110 nM in test [1], 2 nM in test [2], 10 nM in test [3] and 150 nM in test [4]. Further, the Emax in test [3] worked out at 142%.
`COc1ccc(NC(=O)c2n[nH]c3ccc(-c4cncc(CN5CCC(F)(F)C5)c4)cc23)cn1` [compound 72]: the EC50 was 5 nM in test [1], 2 nM in test [2], 100 nM in test [3] and 22 nM in test [4]. In addition, in test [3], the Emax was 72.2%.
In the same order, the values of `CN(C)Cc1cncc(-c2ccc3[nH]nc(-c4cc5cnccc5[nH]4)c3n2)c1` [compound 442] are 1140 nM, 3 nM, 30 nM, 101 nM and 119%.
On to `CC(C)C(=O)Nc1cncc(-c2cc3c(-c4cc5c(N6CCN(C)CC6)cccc5[nH]4)n[nH]c3cn2)c1` [compound 474], for which the EC50 turned out to be 700 nM in test [1], 17 nM in test [2] and 2040 nM in test [4]. In addition, in test [3], the Emax worked out at 36.4%.
With `Clc1ccc(-c2cncc3[nH]c(-c4n[nH]c5ccc(-c6cncc(CN7CCCC7)c6)nc45)nc23)s1` [compound 270], the EC50 stood at 3330 nM in test [1], 4 nM in test [2], 10 nM in test [3] and 88 nM in test [4]. For the same molecule, the Emax in test [3] stood at 62%.
Take `Cc1ccc(-c2cccc3[nH]c(-c4n[nH]c5ccc(-c6cncc(N)c6)nc45)nc23)s1` [compound 271]: the EC50 in test [1] was 66.3 nM; in test [2], 2 nM; in test [3], 10 nM; in test [4] it was 34 nM. Moreover, in test [3], the Emax came out at 87.9%.
As for `CN1CCN(c2cncc3[nH]c(-c4n[nH]c5ccc(-c6cncc(NC(=O)CC(C)(C)C)c6)cc45)cc23)CC1` [compound 479], the EC50 in test [1] amounted to 3480 nM; in test [2], 4 nM; in test [4], 145 nM. For the same molecule, the Emax in test [3] stood at 30.8%.
As to `Nc1cncc(-c2ccc3[nH]nc(-c4cc5cccnc5[nH]4)c3c2)c1` [compound 417], the values for the EC50 in test [1], in test [2] and in test [4] were 102 nM, 3 nM and 73 nM, respectively. The Emax in test [3] was found to be 35.5%.
For `CCNCc1cncc(-c2ccc3[nH]nc(-c4cc5cccnc5[nH]4)c3n2)c1` [compound 440], the EC50 in test [1] came to 3760 nM; in test [2] it was 3 nM; in test [3], 10 nM; in test [4] it was 562 nM. Further, the Emax in test [3] came out at 79.9%.
Turning to `O=C(Nc1cncc(-c2cnc3[nH]nc(-c4cc5c(N6CCCCC6)nccc5[nH]4)c3c2)c1)C1CC1` [compound 460], the EC50 was 3850 nM in test [1], 8 nM in test [2] and 231 nM in test [4]. For the same molecule, the Emax in test [3] turned out to be 42.5%.
In the case of `CN1CCN(c2nccc3[nH]c(-c4n[nH]c5ccc(-c6cncc(CN7CCCCC7)c6)nc45)cc23)CC1` [compound 496], the EC50 in test [1] was 4160 nM; in test [2] it was 6 nM; in test [3], 10 nM; in test [4], 524 nM. Besides, in test [3], the Emax came out at 70.8%.
For the molecule `CCCC(=O)Nc1cncc(-c2cnc3[nH]nc(-c4nc5c(-c6ccccc6F)cncc5[nH]4)c3c2)c1` [compound 172], the EC50 was determined as 8 nM in test [1], 7 nM in test [2] and 117 nM in test [4]. Moreover, in test [3], the Emax stood at 82.8%.
In the case of `c1ncc(-c2ccc3[nH]nc(-c4cc5c(N6CCCCC6)cncc5[nH]4)c3c2)cc1CN1CCCC1` [compound 466], the EC50 in test [1] was 1840 nM; in test [2] it was 3 nM; in test [4], 64 nM. The Emax in test [3] turned out to be 24.7%.
With `FC1(F)CCN(Cc2cncc(-c3ccc4[nH]nc(-c5cc6c(N7CCCCC7)cccc6[nH]5)c4c3)c2)C1` [compound 467], the EC50 in test [1] was 750 nM; in test [2], 12 nM; in test [3], 30 nM; in test [4], 279 nM. In addition, the Emax in test [3] stood at 160%.
As for `CCCCC(=O)Nc1cncc(-c2ccc3[nH]nc(-c4nc5c(-c6cc(F)cc(NCCN(C)C)c6)ccnc5[nH]4)c3n2)c1` [compound 280], the EC50 in test [1] was greater than 10000 nM; in test [2], 2 nM; in test [3], 10 nM; in test [4] it was 79 nM. The Emax in test [3] worked out at 71.4%.
`CS(=O)(=O)NCc1cc(F)cc(-c2cncc3[nH]c(-c4n[nH]c5ccc(-c6cncc(NC(=O)C7CCC7)c6)cc45)cc23)c1` [compound 527]: the values for the EC50 in test [1], in test [2] and in test [4] were 554 nM, 11 nM and 66 nM, respectively. Besides, the Emax in test [3] was 14.5%.
